The source of these data is ChEMBL document CHEMBL1201862, “PubChem BioAssay data set” (2004).

Structures are written as SMILES.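 Exposure lasted 48 hours, with cells grown in 96-well plates and compounds tested at five concentrations. GI50 = concentration required for 50% inhibition of growth.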 Activity calls are given as the source filed them. Cut-off read from the data, not from the text of the source: active = GI50 up to about 1.1 µM and inactive = higher.

Some test systems named below: A498; A549; CAKI-1; COLO 205; EKVX; HCT-116; KM12; LOX IMVI; MCF7; Malme-3M; NCI/ADR-RES; OVCAR-3; OVCAR-4; RPMI-8226; SF-268; SK-MEL-2; SK-MEL-5; SK-OV-3; SW-620; U-251.
Assay in all cases: NCI tumour cell line growth inhibition, 48 h

For the compound `CN(CCCN=C=S)CCCN1c2ccccc2CCc2ccccc21`, the GI50 in the assay on A498 was 1.66 µM (inactive); in the assay on A549, 1.71 µM (inactive); in the assay with CAKI-1, 1.73 µM (inactive); in the assay with COLO 205, 1.66 µM (inactive); in the assay on EKVX it was 1.88 µM (inactive); in the assay on HCT-116, 1.71 µM (inactive). In addition, the GI50 was 1.73 µM (inactive) with KM12; 1.88 µM (inactive) in the assay with LOX IMVI; 1.59 µM (inactive) in the assay on MCF7; 1.99 µM (inactive) with Malme-3M; 1.29 µM (inactive) in the assay on NCI/ADR-RES; 1.66 µM (inactive) in the assay with OVCAR-3. Also, the GI50 in the assay with OVCAR-4 is 1.85 µM (inactive); with RPMI-8226, 1.87 µM (inactive); with SF-268, 1.71 µM (inactive); in the assay on SK-MEL-2, 1.86 µM (inactive); in the assay on SK-MEL-5, 1.78 µM (inactive); in the assay on SK-OV-3, 1.63 µM (inactive). Besides, the GI50 in the assay on SW-620 was 2.23 µM (inactive); with U-251 it was 1.81 µM (inactive).
Take `Cc1cc2c(cc1C)[n+]([O-])c(C(=O)N1CCN(c3ccc([N+](=O)[O-])cc3)CC1)c(C)[n+]2[O-]`: the GI50 was 27.2 µM (inactive) with A498; 82.2 µM (inactive) in the assay on A549; > 100 µM (inactive) with CAKI-1; > 100 µM (inactive) in the assay on COLO 205; 24.4 µM (inactive) in the assay with EKVX; 28.9 µM (inactive) with HCT-116. Moreover, the GI50 is > 100 µM (inactive) in the assay on KM12; 90.2 µM (inactive) with LOX IMVI; > 100 µM (inactive) in the assay on MCF7; > 100 µM (inactive) in the assay with Malme-3M; > 100 µM (inactive) in the assay with NCI/ADR-RES; > 100 µM (inactive) in the assay on OVCAR-3. Also, the GI50 with OVCAR-4 is > 100 µM (inactive); in the assay with RPMI-8226, > 100 µM (inactive); with SF-268 it was 19 µM (inactive); with SK-MEL-2, 38.5 µM (inactive); in the assay on SK-MEL-5 it was 74.6 µM (inactive); in the assay on SK-OV-3 it was 18.2 µM (inactive). In addition, the GI50 in the assay on SW-620 was > 100 µM (inactive); in the assay on U-251 it was 11.9 µM (inactive).
`COc1cc(/C=C2\C[C@H]3[C@@H]4CCc5cc(O)ccc5[C@H]4CC[C@]3(C)C2=O)cc(OC)c1OC`: the GI50 in the assay with A498 was 32.4 µM (inactive); with A549, 15.6 µM (inactive); with CAKI-1 it was 11.4 µM (inactive); with COLO 205, 16.7 µM (inactive); in the assay with EKVX it was 10.1 µM (inactive); with HCT-116, 13.4 µM (inactive). The GI50 with KM12 is 14 µM (inactive); in the assay on LOX IMVI, 15.5 µM (inactive); in the assay on MCF7, 52.6 µM (inactive); in the assay with Malme-3M, 2.53 µM (inactive); in the assay on NCI/ADR-RES, 16.8 µM (inactive); with OVCAR-3 it was 11.4 µM (inactive). Further, the GI50 with OVCAR-4 was 15.8 µM (inactive); in the assay with RPMI-8226, 14.4 µM (inactive); in the assay with SF-268, 8.73 µM (inactive); in the assay with SK-MEL-2, 14 µM (inactive); in the assay with SK-MEL-5 it was 4.31 µM (inactive); in the assay with SK-OV-3 it was 21.2 µM (inactive). Further, the GI50 is 16.7 µM (inactive) in the assay on SW-620 and 15.8 µM (inactive) in the assay with U-251.
For `N=C(N)SCCN1CCCCC1`, the GI50 in the assay with A498 was 48.6 µM (inactive); in the assay with A549, 56 µM (inactive); in the assay on CAKI-1 it was 26.7 µM (inactive); with COLO 205, > 100 µM (inactive); in the assay with EKVX, 60.3 µM (inactive); in the assay on HCT-116, 26.7 µM (inactive). Besides, the GI50 in the assay with KM12 was 40.6 µM (inactive); in the assay on LOX IMVI it was 20.2 µM (inactive); with MCF7, 16.6 µM (inactive); in the assay on Malme-3M, 12.5 µM (inactive); in the assay with NCI/ADR-RES, 29.2 µM (inactive); with OVCAR-3, 22.2 µM (inactive). Further, the GI50 in the assay on OVCAR-4 is 31.6 µM (inactive); in the assay with RPMI-8226 it was 14.1 µM (inactive); in the assay with SF-268 it was 24.4 µM (inactive); in the assay with SK-MEL-2, 2.98 µM (inactive); in the assay with SK-MEL-5, 48 µM (inactive); in the assay on SK-OV-3, 46.8 µM (inactive). Besides, the GI50 in the assay with SW-620 is 29.8 µM (inactive); in the assay on U-251, 19.9 µM (inactive).
With `C#CC1(O)C(COP(=O)(O)OC(COCCCCCCCCCCCCCCCCCC)COP(=O)(O)OCC2OC(n3cc(C)c(=O)[nH]c3=O)CC2N=[N+]=[N-])OC(n2ccc(N)nc2=O)C1O` (stereo not given), the GI50 in the assay on A498 was 1.69 µM (inactive); in the assay with A549, 0.29 µM (active); in the assay with CAKI-1, 0.31 µM (active); with COLO 205, 0.512 µM (active); in the assay on EKVX it was 5.25 µM (inactive); in the assay on HCT-116, 0.105 µM (active). Further, the GI50 with KM12 was 0.891 µM (active); in the assay with LOX IMVI, 0.224 µM (active); in the assay with MCF7, 0.122 µM (active); with Malme-3M it was 1.66 µM (inactive); with NCI/ADR-RES it was 1.22 µM (inactive); with OVCAR-3, 4.58 µM (inactive). Besides, the GI50 in the assay with OVCAR-4 is 4.45 µM (inactive); in the assay on RPMI-8226, 0.0644 µM (active); in the assay with SF-268, 0.957 µM (active); in the assay with SK-MEL-2, 0.382 µM (active); in the assay with SK-MEL-5 it was 2.75 µM (inactive); in the assay on SK-OV-3 it was 4 µM (inactive). In addition, the GI50 in the assay on SW-620 is 0.453 µM (active); with U-251, 0.264 µM (active).
For `CC(C)/C(Cl)=N\OC(=O)Nc1ccc(C#N)cc1`, the GI50 in the assay with A498 was 14.5 µM (inactive); in the assay on A549, 20 µM (inactive); in the assay on CAKI-1, 5.58 µM (inactive); with COLO 205, 1.79 µM (inactive); with EKVX it was 2.58 µM (inactive); in the assay on HCT-116, 5 µM (inactive). The GI50 in the assay on KM12 is 15.8 µM (inactive); in the assay with LOX IMVI it was 3.3 µM (inactive); in the assay with MCF7, 9.04 µM (inactive); in the assay with Malme-3M it was 2.62 µM (inactive); in the assay on NCI/ADR-RES, 17.1 µM (inactive); with OVCAR-3 it was 16.8 µM (inactive). Further, the GI50 was 1.63 µM (inactive) in the assay on OVCAR-4; 2.56 µM (inactive) in the assay on RPMI-8226; 19.2 µM (inactive) in the assay on SF-268; 11.8 µM (inactive) with SK-MEL-2; 5.11 µM (inactive) with SK-MEL-5; 17.3 µM (inactive) with SK-OV-3. In addition, the GI50 with SW-620 is 1.81 µM (inactive); in the assay with U-251 it was 18 µM (inactive).
`NS(=O)(=O)c1ccc(NNc2c3ccccc3nc3c(C(=O)Nc4ccc(S(N)(=O)=O)cc4)cccc23)cc1`: the GI50 was > 100 µM (inactive) in the assay with A498; > 100 µM (inactive) in the assay on A549; > 100 µM (inactive) in the assay on CAKI-1; 39.9 µM (inactive) in the assay with COLO 205; 42.8 µM (inactive) in the assay on EKVX; 22.1 µM (inactive) in the assay on HCT-116. Further, the GI50 in the assay on KM12 is 27.9 µM (inactive); in the assay with LOX IMVI, 11.5 µM (inactive); in the assay on MCF7, 12.9 µM (inactive); with Malme-3M, 23.8 µM (inactive); in the assay on NCI/ADR-RES, > 100 µM (inactive); in the assay on OVCAR-3, 23 µM (inactive). Also, the GI50 in the assay on OVCAR-4 is 19.6 µM (inactive); with RPMI-8226, 24.9 µM (inactive); in the assay with SF-268 it was 16.2 µM (inactive); in the assay with SK-MEL-2, 13 µM (inactive); in the assay with SK-MEL-5 it was 34.9 µM (inactive); in the assay with SK-OV-3, 50 µM (inactive). Moreover, the GI50 with SW-620 is 15.3 µM (inactive); in the assay on U-251, 14.5 µM (inactive).
In the case of `COc1cc2cc(C(=O)N3C[C@@H](CCl)c4c3cc(N)c3ccccc43)[nH]c2c(OC)c1OC`, the GI50 in the assay on A498 was 0.00863 µM (active); in the assay on A549 it was 0.00546 µM (active); in the assay with CAKI-1, 0.004 µM (active); with COLO 205, 0.0776 µM (active); in the assay on EKVX, 0.231 µM (active); in the assay with HCT-116 it was 0.000301 µM (active). Moreover, the GI50 was 0.00216 µM (active) with KM12; 0.00313 µM (active) with LOX IMVI; 0.00145 µM (active) with MCF7; < 0.01 µM (active) in the assay with Malme-3M; 0.00332 µM (active) in the assay on NCI/ADR-RES; 0.00385 µM (active) in the assay with OVCAR-3. Also, the GI50 in the assay on OVCAR-4 is 0.826 µM (active); with RPMI-8226, 0.0076 µM (active); in the assay on SF-268, 0.119 µM (active); with SK-MEL-2, < 0.01 µM (active); with SK-MEL-5 it was < 0.01 µM (active); in the assay on SK-OV-3 it was 0.00457 µM (active). In addition, the GI50 with SW-620 was 0.00201 µM (active); in the assay on U-251, 0.00163 µM (active).
Turning to `N/C(=N/O)N/N=C\c1cc(Cl)cc(Cl)c1O`, the GI50 is 6.38 µM (inactive) in the assay with A498; 1.13 µM (inactive) in the assay on A549; 1.09 µM (active) in the assay on CAKI-1; 5.7 µM (inactive) in the assay on COLO 205; 6.71 µM (inactive) in the assay on EKVX; 1.36 µM (inactive) in the assay with HCT-116. Besides, the GI50 with KM12 is 6.65 µM (inactive); in the assay with LOX IMVI, 0.918 µM (active); in the assay on MCF7 it was 0.428 µM (active); with Malme-3M it was 4.86 µM (inactive); in the assay with NCI/ADR-RES, 1.32 µM (inactive); in the assay with OVCAR-3 it was 5.41 µM (inactive). In addition, the GI50 in the assay with OVCAR-4 is 8.04 µM (inactive); in the assay on RPMI-8226 it was 3.99 µM (inactive); with SF-268 it was 1.4 µM (inactive); in the assay with SK-MEL-2, 9.62 µM (inactive); in the assay on SK-MEL-5, 3.3 µM (inactive); with SK-OV-3, 4.91 µM (inactive). The GI50 in the assay on SW-620 was 3.97 µM (inactive); in the assay with U-251, 2.87 µM (inactive).
Turning to `CC(C)CCCC(C)[C@H]1CC[C@H]2[C@@H]3CC[C@H]4C[C@@H](CCC=C(c5cc(Cl)c(O)c(C(=O)O)c5)c5cc(Cl)c(O)c(C(=O)O)c5)CC[C@]4(C)[C@H]3CC[C@]12C` (stereo not given in full), the GI50 with A498, with A549, in the assay with CAKI-1, in the assay with COLO 205, with EKVX and with HCT-116 was > 50 µM (inactive) in each case. For the same compound, the GI50 in the assay on KM12, with LOX IMVI, with MCF7, in the assay on Malme-3M, in the assay on NCI/ADR-RES and with OVCAR-3 was > 50 µM (inactive) each time. Also, the GI50 in the assay on OVCAR-4 is > 50 µM (inactive); in the assay with RPMI-8226, > 50 µM (inactive); in the assay with SF-268, > 50 µM (inactive); in the assay on SK-MEL-2, > 50 µM (inactive); in the assay on SK-MEL-5, 28.8 µM (inactive); in the assay with SK-OV-3, > 50 µM (inactive). Moreover, the GI50 with SW-620 and in the assay on U-251 was > 50 µM (inactive) throughout.
